# Publication PMC8330636, “Design and enantioselective synthesis of 3-(α-acrylic acid) benzoxaboroles to combat carbapenemase resistance” (Chemical Communications (Cambridge, England), 2021)
# Like-named read-outs stand apart in the source and are kept apart here.
# Key:
# KPC-2 [1] = target: T1, KPC-2 (Klebsiella pneumoniae, UniProt Q9F663); test: inhibition of purified recombinant enzyme; format: biochemical; conditions: read-out: Class A KPC-2
# T1 construct: purified recombinant; class A serine beta-lactamase; construct details only in ESI
# T1 sequence (Q9F663 25-293 limits assumed): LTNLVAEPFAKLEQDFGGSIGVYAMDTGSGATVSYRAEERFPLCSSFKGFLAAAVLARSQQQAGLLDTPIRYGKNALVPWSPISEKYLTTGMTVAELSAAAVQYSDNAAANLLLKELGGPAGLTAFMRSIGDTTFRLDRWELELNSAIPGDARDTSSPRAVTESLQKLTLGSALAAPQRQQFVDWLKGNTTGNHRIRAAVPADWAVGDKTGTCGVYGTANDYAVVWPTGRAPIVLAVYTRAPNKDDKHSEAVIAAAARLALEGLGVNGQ
# OXA-48 [2] = target: T2, OXA-48 (Klebsiella pneumoniae, UniProt Q6XEC0); test: inhibition of purified recombinant enzyme; format: biochemical; conditions: read-out: Class D OXA-48
# T2 construct: purified recombinant; class D serine beta-lactamase; construct details only in ESI
# T2 sequence (Q6XEC0 23-265 limits assumed): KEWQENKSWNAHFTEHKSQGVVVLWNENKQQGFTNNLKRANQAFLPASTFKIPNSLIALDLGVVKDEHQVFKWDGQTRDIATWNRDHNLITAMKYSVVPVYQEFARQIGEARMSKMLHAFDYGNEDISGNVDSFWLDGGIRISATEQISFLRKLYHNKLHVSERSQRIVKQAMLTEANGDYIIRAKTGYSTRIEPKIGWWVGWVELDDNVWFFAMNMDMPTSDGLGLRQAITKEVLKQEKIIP
# OXA-48 [3] = target: T2, OXA-48; test: biochemical; set-up: inhibition of purified recombinant beta-lactamases, IC50; conditions: read-out: Class D OXA-48
# KPC-2 [4] = target: T1, KPC-2; test: biochemical; set-up: inhibition of purified recombinant beta-lactamases, IC50; conditions: read-out: Class A KPC-2
# Class B1 NDM-1 [5] = target: T3, Class B1 NDM-1 (Klebsiella pneumoniae, UniProt C7C422); test: biochemical; set-up: inhibition of purified recombinant beta-lactamases, IC50
# T3 construct: gene blaNDM-1
# T3 sequence (C7C422 whole entry, looked up): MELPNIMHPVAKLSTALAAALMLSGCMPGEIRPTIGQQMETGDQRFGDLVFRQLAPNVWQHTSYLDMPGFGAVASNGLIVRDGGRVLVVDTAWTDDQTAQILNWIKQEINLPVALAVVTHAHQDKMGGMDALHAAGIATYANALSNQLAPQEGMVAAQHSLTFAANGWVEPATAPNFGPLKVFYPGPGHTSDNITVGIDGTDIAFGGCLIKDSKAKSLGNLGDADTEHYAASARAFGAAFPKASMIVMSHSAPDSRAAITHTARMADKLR
# Class B1 NDM-1 [6] = target: T3, Class B1 NDM-1; test: biochemical; set-up: inhibition of purified recombinant beta-lactamases, IC50 from dose-response curves; read-out not stated in excerpts
# Excerpt: This selectivity was mostly, but not exclusively observed for the other β-lactamases, substantial inhibition of which was more sporadic than for KPC-2 (Table 2). The KPC-2 stereoselectivity for the benzoxaborole derivatives is interesting since the penicillin substrates of some of the β-lactamases have a (2S) C-3 carbon adjacent to their C-2 carboxylate. The difference in results for the (R)- and (S)-benzoxaboroles may reflect different distances between their carboxylate and electrophilic boron; the analogous carboxylate to β-lactam distance is proposed to be important with respect to antibacterial activity.[11]
SMILES,IC50 (KPC-2 [1]),IC50 (OXA-48 [2]),IC50 (OXA-48 [3]),IC50 (KPC-2 [4]),IC50 (Class B1 NDM-1 [5]),IC50 (Class B1 NDM-1 [6])
C=C(C(=O)O)[C@@H]1OB(O)c2ccccc21 [(R)-4a],3080 nM,15.8 µM,–,–,–,–
C=C(C(=O)O)[C@@H]1OB(O)c2ccc(OC)cc21 [(R)-4c],7620 nM,42.5 µM,–,–,–,–
C=C(C(=O)O)[C@@H]1OB(O)c2ccc(F)cc21 [(R)-4f],3870 nM,10.1 µM,–,–,–,–
C=C(C(=O)O)[C@@H]1OB(O)c2cc(F)ccc21 [(R)-4j],970 nM,5.97 µM,–,–,–,–
C=C(C(=O)O)[C@@H]1OB(O)c2ccc(Oc3ccc(C)cc3)cc21 [(R)-4m],–,–,6.24 µM,3580 nM,352 µM,–
C=C(C(=O)O)[C@@H]1OB(O)c2ccc(Oc3cccc(C)c3)cc21 [(R)-4n],–,–,4.1 µM,2110 nM,110 µM,–
C=C(C(=O)O)[C@@H]1OB(O)c2ccc(Oc3ccc(C(F)(F)F)cc3)cc21 [(R)-4o],–,–,7.73 µM,3760 nM,> 600 µM,–
C=C(C(=O)O)[C@@H]1OB(O)c2ccc(OCc3ccccc3)cc21 [(R)-4p],–,–,7.55 µM,1170 nM,> 300 µM,–
C=C(C(=O)O)[C@@H]1OB(O)c2cc(Oc3ccc(OC)cc3)ccc21 [(R)-4q],70 nM,0.43 µM,–,–,–,–
C=C(C(=O)O)[C@@H]1OB(O)c2cc(Oc3ccc([N+](=O)[O-])cc3)ccc21 [(R)-4r],–,–,2.64 µM,120 nM,308 µM,–
C=C(C(=O)O)[C@@H]1OB(O)c2cc(Oc3ccc(Cl)cc3)ccc21 [(R)-4s],–,–,0.85 µM,270 nM,146 µM,–
C=C(C(=O)O)[C@@H]1OB(O)c2cc(OCc3ccccc3)ccc21 [(R)-4t],–,–,1.33 µM,550 nM,382 µM,–
C=C(C(=O)O)[C@H]1OB(O)c2ccccc21 [(S)-4a],480 nM,14.1 µM,–,–,–,> 600 µM
C=C(C(=O)O)[C@H]1OB(O)c2ccc(OC)cc21 [(S)-4c],540 nM,34.1 µM,–,–,–,–
C=C(C(=O)O)[C@H]1OB(O)c2ccc(F)cc21 [(S)-4f],340 nM,14.7 µM,–,–,–,–
C=C(C(=O)O)[C@H]1OB(O)c2cc(F)ccc21 [(S)-4j],490 nM,12 µM,–,–,–,–
C=C(C(=O)O)[C@H]1OB(O)c2cc(Oc3ccc(OC)cc3)ccc21 [(S)-4q],10 nM,0.74 µM,–,–,–,–
NC(=O)[C@@H]1CC[C@@H]2CN1C(=O)N2OS(=O)(=O)O [Avibactam],–,–,–,–,–,> 600 µM
